Assay results: patent publication US6448027B1, “Method for specific measurement of acid phosphatase derived from osteoclasts” (FALCO biosystems Ltd., priority 1999, dated 2002)

Key:
[1] = system: Band 5b tartrate-resistant acid phosphatase; test: Effects of other materials on Band 5b TrACP activity in serum of healthy subjects; type: biochemical, human; conditions: for Band 5b TrACP activity (%): control activity taken as 100%, serum of healthy subjects; for Effect of addition on Band 5b tartrate-resistant acid phosphatase activity: summary in words of Table 1, 1-10 mmol/L
Method: (1) Formulation of Compositions
(a) A Composition Comprising Tartaric Acid and Heparin (Reaction Buffer Solution 1)
(b) A composition comprising tartaric acid, heparin and fluoride (reaction buffer solution 2)
(2) Measurement (an Example Using Conventional Automatic Analyzer, Cobas® Fara, Baxter Ltd.)
(§1) To a cuvette is added 150 µl of reaction buffer solution 1 or reaction buffer solution 2 and, after 20 seconds, 15 µl of sample (serum) is added. The mixture is incubated at 37° C. for 5 minutes and then 60 µl of the substrate solution is added to start the enzyme reaction (the reaction mixture is 15 times as much as the amount of the sample (=(150 μ1+15 μ1+60 μ1)/15 μ1). The change in absorbance at 340 nm is monitored at 20 seconds intervals for 5 minutes. The amount of change in absorbance per one minute (the amount of change in absorbance in the enzyme reaction per unit time) is obtained from a linear part of the change in absorbance. The amount of change in absorbance per one minute in blank is obtained by the same procedure as the above except for adding physical saline or purified water instead of the sample.
The activity of osteoclast-derived acid phosphatase located at Band 5b is obtained by subtracting the activity value obtained by using the composition comprising tartaric acid, heparin and fluoride of the reaction buffer solution 2 from the activity value obtained by using the composition comprising tartaric acid and the inhibitor to acid phosphatases located at Band 5 other than Band 5b (in Examples, heparin is used) of the reaction buffer solution 1. […] The concentration, formulation, amount and the like of the above composition are adjusted according to a particular kind of automatic analyzer and measurement (kind and concentration of the substrate and the like) used.
(§2) Activity (U/L)=[(amount of change in absorbance per unit time in enzyme reaction−amount of change in absorbance in blank)×liquid amount on enzyme reaction×10^6]÷[sample amount×molar absorbance coefficient×cell optical path length]

[2] = system: Band 5b tartrate-resistant acid phosphatase; conditions: read-out: Km value for DCAPP of Band 5b tartrate-resistant acid phosphatase activity; substrate DCAPP
Method: as §1, with “sample. […]” for “sample.”
as §2

bone extract = test: Effect of heparin on bone extract acid phosphatase activity; type: biochemical; conditions: FIG. 3; bovine tibia extract
Method: Bone extract was prepared according to the method described in Nakanishi, M., Yoh, K., Uchida, K., Maruo, S., Matuoka, A., Clin. Chem., 1998, 44, 221-225. Bovine tibia after removal of soft tissue was cut into small cubes. The marrow and blood were removed, pulverized and homogenized in a solution containing Triton x-100, potassium chloride, phenylmethylsulfonyl fluoride, benzamidine and aminocaproic acid. The extract was collected by centrifugation at 10,000×g for 20 minutes at 4° C. and stored at −80° C. until use.

[3] = system: tartrate-resistant fluoride-sensitive acid phosphatases other than Band 5b; test: TrFsACP activity of CM-Sepharose fractions of serum with heparin or polybrene in the reaction buffer; type: biochemical, human; conditions: CM-Sepharose fractions of children's serum; FIG. 1
Method: Using CM-Sepharose, Band 5a and Band 5b tartrate-resistant acid phosphatase were separated and collected.
(§3) The CM-Sepharose was packed into glass tubing (0.9 cm i.d.; length, 60 cm) and washed with acetate buffer (10 mmol/L, pH 5.0). The serum sample (children's serum, 5 ml) was adjusted to pH 5.0 by adding acetic acid and the coagulated proteins were removed by centrifugation at 20,000×g for 15 minutes. The supernatant fraction was passed through the column at 0.5 ml/minute. The enzyme, which was retained on the column, was then eluted with a liner gradient of sodium chloride: 0 to 1 mol/L in elution buffer (299 ml, acetate buffer, 10 mmol/L, pH 5.0). The fractionated serum was subjected to the method described in the above general method to measure tartrate-resistant fluoride-sensitive acid phosphatase activity (the value obtained by subtracting the value obtained with measurement solution 2 from the value obtained with measurement solution 1). Acid phosphatase activity was measured similarly by using measurement solution added polybrene which was antagonist of heparin instead of heparin.
When polybrene was added to the reaction buffer, at least four peaks of tartrate-resistant fluoride-sensitive acid phosphatase activity were observed (FIG. 1, I, II, III and IV). But only one peak (IV) was observed when heparin was added to the reaction buffer. […]

[4] = target: T1, Band 5a tartrate-resistant acid phosphatase (Homo sapiens, UniProt P13686); test: Effect of heparin on Band 5a tartrate-resistant acid phosphatase (CM-Sepharose peak III); type: biochemical
T1 construct: These fractions containing peak III and IV were used as Band 5a and Band 5b tartrate-resistant acid phosphatase, respectively; from tissue; host or cells: children's serum, CM-Sepharose cation-exchange fraction (peak III)
T1 sequence (P13686 22-325): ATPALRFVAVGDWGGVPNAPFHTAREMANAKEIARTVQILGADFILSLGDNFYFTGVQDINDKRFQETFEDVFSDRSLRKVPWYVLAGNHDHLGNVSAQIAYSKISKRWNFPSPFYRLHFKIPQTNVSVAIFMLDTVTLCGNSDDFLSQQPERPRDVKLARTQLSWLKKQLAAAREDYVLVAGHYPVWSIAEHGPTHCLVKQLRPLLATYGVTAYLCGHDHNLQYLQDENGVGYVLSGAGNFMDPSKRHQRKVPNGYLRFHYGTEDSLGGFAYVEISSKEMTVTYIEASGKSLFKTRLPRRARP
Method: as §3
These fractions containing peak III and IV were used as Band 5a and Band 5b tartrate-resistant acid phosphatase, respectively, in the following Examples. […]
Tartrate-resistant fluoride-sensitive acid phosphatase activity was measured using Band 5a and 5b tartrate-resistant acid phosphatases separated by CM-Sepharose to determine the effect of pH on activity. […]

serum = test: Effect of heparin on serum acid phosphatase activity; type: biochemical, human; conditions: FIG. 3
Method: Blood samples collected from 516 healthy subjects aged 5 to 79 years (210 males and 306 females) were coagulated at room temperature for 2 to 4 hours and centrifuged at 1,000×g at room temperature for 10 minutes. Serum thus separated was transferred into 1.5 ml tubes and stored at −80° C. until use.

[5] = compound 1 mmol/L in reaction buffer solution
[6] = compound 5 mmol/L in reaction buffer solution
[7] = compound 10 mmol/L in reaction buffer solution

In the case of `O=C1O[C@H]([C@@H](O)CO)C(O)=C1O` [Ascorbic acid], the “Band 5b TrACP activity (%)” value [1, 5] is reported as 97%, the “Band 5b TrACP activity (%)” value [1, 6] is reported as 103% and the “Band 5b TrACP activity (%)” value [1, 7] is reported as 103%. For the same compound, the “Effect of addition on Band 5b tartrate-resistant acid phosphatase activity” value (from here on “Effect of addition”) [1] was “no effect”.
With `CC(=O)c1cc(Cl)c(OP(=O)(O)O)c(Cl)c1` [DCAPP, 2,6-dichloro-4-acetylphenyl phosphate] the Km [2] was 4.7 mM.
For `O=C(O)CN(CCN(CC(=O)O)CC(=O)O)CC(=O)O` [EDTA], the “Band 5b TrACP activity (%)” value [1, 5] was 95%, the “Band 5b TrACP activity (%)” value [1, 6] was 96% and the “Band 5b TrACP activity (%)” value [1, 7] was 93%. For the same compound, the “Effect of addition” value [1] was “no effect”.
With `O[C@H](CS)[C@H](O)CS` (racemic) [Dithiothreitol] the “Band 5b TrACP activity (%)” value [1, 5] was 93%, the “Band 5b TrACP activity (%)” value [1, 6] was 69% and the “Band 5b TrACP activity (%)” value [1, 7] was 57%. For the same compound, the “Effect of addition” value [1] was “inhibited enzyme activity”.
For heparin, the “Effect of heparin on bone extract” value (bone extract) was “slightly inhibited”, the “Effect of heparin on tartrate-resistant fluoride-sensitive acid phosphatases other than Band 5b” value [3] was “inhibits” and the “Effect of heparin on Band 5a tartrate-resistant acid phosphatase” value ([4]; FIG. 3) was “significantly inhibited”. For the same compound, the “Band 5a tartrate-resistant acid phosphatase activity after addition of heparin” value ([4]; pH 6.6, 0.05% heparin in reaction mixture, FIG. 4) was “zero level” and the “Effect of heparin on serum” value (serum) was “slightly inhibited”.
